Values quoted from earlier work in patent US20240335441A1, “METHOD OF TREATING POSTTRAUMATIC STRESS DISORDER” (Jazz Pharmaceuticals Ireland Limited, priority 2021, published 2024).

Tests used:
[1] = test system: men with cannabis use disorder (CUD); conditions: compared to placebo
healthy volunteers = conditions: placebo-controlled

SMILES: O=C(Nc1cccnn1)N1CCC(=Cc2cccc(Oc3ccc(C(F)(F)F)cn3)c2)CC1 [Compound A, N-Pyridazin-3-yl-4-{3-[5-(trifluoromethyl)-2-pyridyloxy]benzylidene}piperidine-1-carboxamide]
- self-reported overall sleep [1]: improved
- slow wave sleep as measured by polysomnography [1]: significantly increased
- negative affect in response to an aversive stimulus (healthy volunteers): blunted
- recall of fear extinction memory (healthy volunteers): enhanced
